In brackets after ≈: the same amount, converted by molar mass. Where two headings read alike, the source gives them in different places.
What was measured:
Experiment in all cases: In vitro antibacterial activity, microtitration dilution method (MIC)
Format in all cases: cell-based
[1] = test system: Streptococcus pneumoniae SV-1
Description: (§1) Agents & Chemoth., 6, 124 (1974), which is incorporated herein by reference.

Proteus rettgeri M 1771 = conditions: Providencia rettgeri, M1771; Proteus rettgeri M 1771, microtitration dilution; read-out: Minimal Inhibitory Concentration MIC
Description: as §1

[2] = test system: Pseudomonas aeruginosa UI-18; conditions: UI18; Pseudomonas aeruginosa UI-18, microtitration dilution; read-out: Minimal Inhibitory Concentration MIC
Description: as §1

[3] = test system: Streptococcus faecalis MGH-2; conditions: Enterococcus faecalis
Description: as §1

[4] = test system: Staphylococcus aureus UC-76
Description: as §1

[5] = test system: Klebsiella pneumoniae MGH-2
Description: as §1

[6] = test system: Staphylococcus aureus H 228; conditions: H228; Staphylococcus aureus H 228, microtitration dilution; read-out: Minimal Inhibitory Concentration MIC
Description: (§2) The compounds of the invention display antibacterial activity when tested by the microtitration dilution method as described in Heifetz, et al, Antimicr. Agents & Chemoth., 6, 124 (1974), which is incorporated herein by reference. By use of this method, the followed minimum inhibitory concentration values (MICs in μg/mL) were obtained for representative compounds of the invention.

[7] = test system: Streptococcus pyogenes C-203; conditions: C203; Streptococcus pyogenes C-203, microtitration dilution; read-out: Minimal Inhibitory Concentration MIC
Description: as §2

[8] = test system: Enterobacter cloacae MA 2646
Description: as §2

Escherichia coli Vogel = conditions: read-out: Minimal Inhibitory Concentration MIC
Description: as §2

[9] = SV1, Streptococcus pneumoniae SV-1, microtitration dilution, read-out: Minimal Inhibitory Concentration MIC
[10] = MGH2, Streptococcus faecalis MGH-2, microtitration dilution, read-out: Minimal Inhibitory Concentration MIC
[11] = UC76, Staphylococcus aureus UC-76, microtitration dilution, read-out: Minimal Inhibitory Concentration MIC
[12] = MGH2, Klebsiella pneumoniae MGH-2, microtitration dilution, read-out: Minimal Inhibitory Concentration MIC
[13] = MA2646, Enterobacter cloacae MA 2646, microtitration dilution, read-out: Minimal Inhibitory Concentration MIC
[14] = Escherichia coli Vogel, microtitration dilution
[15] = Enterobacter cloacae, MA2646, read-out: Minimal Inhibitory Concentration MIC
[16] = Staphylococcus aureus, UC76, read-out: Minimal Inhibitory Concentration MIC
[17] = MGH2, read-out: Minimal Inhibitory Concentration MIC

Row | SMILES | MIC [1, 9] | MIC (Proteus rettgeri M 1771) | MIC [2] | MIC [3, 10] | MIC [4, 11] | MIC [5, 12] | MIC [6] | MIC [7] | MIC [8, 13] | MIC (Escherichia coli Vogel; [14]) | MIC [8, 15] | MIC [4, 16] | MIC (Escherichia coli Vogel; Escherichia coli) | MIC ([1]; Streptococcus pneumoniae, SV1, read-out: Minimal Inhibitory Concentration MIC) | MIC [3, 17] | MIC ([5]; Klebsiella pneumoniae, MGH2, read-out: Minimal Inhibitory Concentration MIC)
1 | Cc1c(F)c(N2CCNC(C)C2)cc2c1c(=O)c(C(=O)O)cn2C1CC1 (stereo not shown) [Ex. 7, 1-Cyclopropyl-6-fluoro-1,4-dihydro-5-methyl-7-(3-methyl-1-piperazinyl)-4-oxo-3-quinolinecarboxylic acid] | 0.025 µg/mL (≈ 0.0696 µM) | 0.2 µg/mL (≈ 0.556 µM) | 0.8 µg/mL (≈ 2.23 µM) | 0.1 µg/mL (≈ 0.278 µM) | 0.025 µg/mL (≈ 0.0696 µM) | 0.05 µg/mL (≈ 0.139 µM) | 0.1 µg/mL (≈ 0.278 µM) | 0.05 µg/mL (≈ 0.139 µM) | 0.025 µg/mL (≈ 0.0696 µM) | 0.013 µg/mL (≈ 0.0362 µM) |  |  |  |  |  | 
2 | Cc1c(F)c(N2CCC(N)C2)cc2c1c(=O)c(C(=O)O)cn2C1CC1 (stereo not shown) [Ex. 8, 7-(3-Amino-1-pyrrolidinyl)-1-cyclopropyl-6-fluoro-1,4-dihydro-5-methyl-4-oxo-3-quinolinecarboxylic acid] | 0.013 µg/mL (≈ 0.0376 µM) | 0.1 µg/mL (≈ 0.29 µM) | 0.4 µg/mL (≈ 1.16 µM) | 0.4 µg/mL (≈ 1.16 µM) | 0.025 µg/mL (≈ 0.0724 µM) | 0.1 µg/mL (≈ 0.29 µM) | 0.1 µg/mL (≈ 0.29 µM) | 0.025 µg/mL (≈ 0.0724 µM) |  | 0.025 µg/mL (≈ 0.0724 µM) | 0.05 µg/mL (≈ 0.145 µM) |  |  |  |  | 
3 | Cc1c(F)c(N2CCC(C)(CN)C2)cc2c1c(=O)c(C(=O)O)cn2C1CC1 (stereo not shown) [Ex. 9, 7-[3-(Aminomethyl)-3-methyl-1-pyrrolidinyl]-1-cyclopropyl-6-fluoro-1,4-dihydro-5-methyl-4-oxo-3-quinolinecarboxylic acid] | 0.006 µg/mL (≈ 0.0161 µM) | 0.8 µg/mL (≈ 2.14 µM) | 1.6 µg/mL (≈ 4.28 µM) | 0.1 µg/mL (≈ 0.268 µM) | 0.006 µg/mL (≈ 0.0161 µM) | 0.4 µg/mL (≈ 1.07 µM) | 0.025 µg/mL (≈ 0.0669 µM) | 0.013 µg/mL (≈ 0.0348 µM) | 0.1 µg/mL (≈ 0.268 µM) | 0.1 µg/mL (≈ 0.268 µM) |  |  |  |  |  | 
4 | Cc1c(F)c(N2CCNCC2)c(Cl)c2c1c(=O)c(C(=O)O)cn2C1CC1 [Ex. 10, 8-Chloro-1-cyclopropyl-6-fluoro-1,4-dihydro-5-methyl-4-oxo-7-(1-piperazinyl)-3-quinolinecarboxylic acid] | 0.1 µg/mL (≈ 0.263 µM) | 0.2 µg/mL (≈ 0.527 µM) | 0.2 µg/mL (≈ 0.527 µM) | 0.2 µg/mL (≈ 0.527 µM) | 0.025 µg/mL (≈ 0.0658 µM) | 0.1 µg/mL (≈ 0.263 µM) | 0.05 µg/mL (≈ 0.132 µM) | 0.2 µg/mL (≈ 0.527 µM) |  | 0.025 µg/mL (≈ 0.0658 µM) | 0.05 µg/mL (≈ 0.132 µM) |  |  |  |  | 
5 | Cc1c(F)c(N2CCC(N)C2)c(Cl)c2c1c(=O)c(C(=O)O)cn2C1CC1 (stereo not shown) [Ex. 11, 7-(3-Amino-1-pyrrolidinyl)-8-chloro-1-cyclopropyl-6-fluoro-1,4-dihydro-5-methyl-4-oxo-3-quinolinecarboxylic acid] | 0.025 µg/mL (≈ 0.0658 µM) | 0.05 µg/mL (≈ 0.132 µM) | 0.2 µg/mL (≈ 0.527 µM) | 0.05 µg/mL (≈ 0.132 µM) | 0.013 µg/mL (≈ 0.0342 µM) | 0.05 µg/mL (≈ 0.132 µM) | 0.025 µg/mL (≈ 0.0658 µM) | 0.05 µg/mL (≈ 0.132 µM) |  | 0.013 µg/mL (≈ 0.0342 µM) | 0.05 µg/mL (≈ 0.132 µM) |  |  |  |  | 
6 | CCn1cc(C(=O)O)c(=O)c2c(C)c(F)c(N3CCNCC3)c(F)c21 [Ex. 12, 1-Ethyl-6,8-difluoro-1,4-dihydro-5-methyl-4-oxo-7-(1-piperazinyl)-3-quinolinecarboxylic acid] | 6.3 µg/mL (≈ 17.9 µM) | 0.4 µg/mL (≈ 1.14 µM) | 1.6 µg/mL (≈ 4.55 µM) | 3.1 µg/mL (≈ 8.82 µM) |  | 0.2 µg/mL (≈ 0.569 µM) | 0.8 µg/mL (≈ 2.28 µM) | 12.5 µg/mL (≈ 35.6 µM) |  |  | 0.05 µg/mL (≈ 0.142 µM) | 0.2 µg/mL (≈ 0.569 µM) | 0.05 µg/mL (≈ 0.142 µM) |  |  | 
7 | CCn1cc(C(=O)O)c(=O)c2c(C)c(F)c(N3CCC(N)C3)c(F)c21 (stereo not shown) [Ex. 13, 7-(3-Amino-1-pyrrolidinyl)-1-ethyl-6,8-difluoro-1,4-dihydro-5-methyl-4-oxo-3-quinolinecarboxylic acid] |  | 0.4 µg/mL (≈ 1.14 µM) | 1.6 µg/mL (≈ 4.55 µM) |  | 0.1 µg/mL (≈ 0.285 µM) | 0.2 µg/mL (≈ 0.569 µM) | 0.4 µg/mL (≈ 1.14 µM) | 3.1 µg/mL (≈ 8.82 µM) |  | 0.05 µg/mL (≈ 0.142 µM) | 0.05 µg/mL (≈ 0.142 µM) |  |  | 1.6 µg/mL (≈ 4.55 µM) | 0.8 µg/mL (≈ 2.28 µM) | 
8 | Cc1c(F)c(N2CCNCC2)c(F)c2c1c(=O)c(C(=O)O)cn2-c1ccc(F)cc1F [Ex. 14, 6,8-Difluoro-1-(2,4-difluorophenyl)-1,4-dihydro-5-methyl-4-oxo-7-(1-piperazinyl)-3-quinolinecarboxylic acid] | 0.4 µg/mL (≈ 0.919 µM) | 0.4 µg/mL (≈ 0.919 µM) | 0.8 µg/mL (≈ 1.84 µM) | 0.4 µg/mL (≈ 0.919 µM) | 0.05 µg/mL (≈ 0.115 µM) | 0.4 µg/mL (≈ 0.919 µM) | 0.2 µg/mL (≈ 0.459 µM) | 0.4 µg/mL (≈ 0.919 µM) | 0.1 µg/mL (≈ 0.23 µM) | 0.05 µg/mL (≈ 0.115 µM) |  |  |  |  |  | 
9 | Cc1c(F)c(N2CC(C)NC(C)C2)c(F)c2c1c(=O)c(C(=O)O)cn2-c1ccc(F)cc1F (stereo not shown) [Ex. 14a, 6,8-Difluoro-1-(2,4-difluorophenyl)-1,4-dihydro-5-methyl-7-(3,5-dimethyl-1-piperazinyl)-4-oxo-3-quinolinecarboxylic acid] | 0.8 µg/mL (≈ 1.73 µM) | 3.1 µg/mL (≈ 6.69 µM) | 3.1 µg/mL (≈ 6.69 µM) | 1.6 µg/mL (≈ 3.45 µM) |  | 1.6 µg/mL (≈ 3.45 µM) | 0.4 µg/mL (≈ 0.863 µM) | 1.6 µg/mL (≈ 3.45 µM) | 0.4 µg/mL (≈ 0.863 µM) | 0.4 µg/mL (≈ 0.863 µM) |  | 0.2 µg/mL (≈ 0.432 µM) |  |  |  | 
10 | Cc1c(F)c(N2CCC(N)C2)c(F)c2c1c(=O)c(C(=O)O)cn2-c1ccc(F)cc1F (stereo not shown) [Ex. 15, 7(3-Amino-1-pyrrolidinyl)-6,8-difluoro-1-(2,4-difluorophenyl)-1,4-dihydro-5-methyl-4-oxo-3-quinolinecarboxylic acid] | 0.1 µg/mL (≈ 0.23 µM) | 0.2 µg/mL (≈ 0.459 µM) | 0.8 µg/mL (≈ 1.84 µM) | 0.2 µg/mL (≈ 0.459 µM) | 0.025 µg/mL (≈ 0.0574 µM) |  | 0.05 µg/mL (≈ 0.115 µM) | 0.1 µg/mL (≈ 0.23 µM) | 0.025 µg/mL (≈ 0.0574 µM) | 0.025 µg/mL (≈ 0.0574 µM) |  |  |  |  |  | 0.1 µg/mL (≈ 0.23 µM)
11 | Cc1c(F)c(N2CCNCC2)cc2c1c(=O)c(C(=O)O)cn2-c1ccc(F)cc1F [Ex. 17, 6-Fluoro-1-(2,4-difluorophenyl)-1,4-dihydro-5-methyl-4-oxo-7-(1-piperazinyl)-3-quinolinecarboxylic acid] | 0.05 µg/mL (≈ 0.12 µM) | 0.2 µg/mL (≈ 0.479 µM) | 0.8 µg/mL (≈ 1.92 µM) | 0.2 µg/mL (≈ 0.479 µM) | 0.025 µg/mL (≈ 0.0599 µM) | 0.1 µg/mL (≈ 0.24 µM) | 0.1 µg/mL (≈ 0.24 µM) | 0.1 µg/mL (≈ 0.24 µM) | 0.05 µg/mL (≈ 0.12 µM) | 0.05 µg/mL (≈ 0.12 µM) |  |  |  |  |  | 
12 | Cc1c(F)c(N2CCNC(C)C2)cc2c1c(=O)c(C(=O)O)cn2-c1ccc(F)cc1F (stereo not shown) [Ex. 17a, 6-Fluoro-1-(2,4-difluorophenyl)-1,4-dihydro-5-methyl-7-(3-methyl-1-piperazinyl)-4-oxo-3-quinolinecarboxylic acid] | 0.05 µg/mL (≈ 0.116 µM) | 0.8 µg/mL (≈ 1.85 µM) | 1.6 µg/mL (≈ 3.71 µM) | 0.4 µg/mL (≈ 0.927 µM) | 0.025 µg/mL (≈ 0.0579 µM) | 0.4 µg/mL (≈ 0.927 µM) | 0.1 µg/mL (≈ 0.232 µM) | 0.1 µg/mL (≈ 0.232 µM) | 0.2 µg/mL (≈ 0.464 µM) | 0.1 µg/mL (≈ 0.232 µM) |  |  |  |  |  | 
13 | Cc1c(F)c(N2CC(C)NC(C)C2)cc2c1c(=O)c(C(=O)O)cn2-c1ccc(F)cc1F (stereo not shown) [Ex. 17b, 6-Fluoro-1-(2,4-difluorophenyl)-1,4-dihydro-5-methyl-7-(3,5-dimethyl-1-piperazinyl)-4-oxo-3-quinolinecarboxylic acid] | 0.05 µg/mL (≈ 0.112 µM) | 1.6 µg/mL (≈ 3.59 µM) | 1.6 µg/mL (≈ 3.59 µM) |  | 0.05 µg/mL (≈ 0.112 µM) | 0.8 µg/mL (≈ 1.8 µM) | 0.1 µg/mL (≈ 0.224 µM) | 0.1 µg/mL (≈ 0.224 µM) | 0.4 µg/mL (≈ 0.898 µM) | 0.2 µg/mL (≈ 0.449 µM) |  |  |  |  | 0.8 µg/mL (≈ 1.8 µM) | 

Source: patent publication US5585491A, “Antibacterial agents” (Otsuka Pharmaceutical Co., Ltd., priority 1995, dated 1996)
